Data reported in US20260274837A1, “PESTICIDALLY ACTIVE HETEROCYCLIC DERIVATIVES WITH SULFUR CONTAINING SUBSTITUENTS” (SYNGENTA CROP PROTECTION AG, priority 2023, published 2026).

What was measured:
Assay type in all cases: in vivo
[1] = tested on: Plutella xylostella; assay: Activity against Plutella xylostella (diamond back moth), artificial diet in 24-well plates; conditions: 192 h, application rate 200 ppm, eggs, assessed 8 days after infestation vs untreated, read-out: effect in at least one of the two categories (mortality or growth inhibition)
Method: Example B3: Activity Against Plutella xylostella (Diamond Back Moth)
24-well microtiter plates with artificial diet were treated with aqueous test solutions prepared from 10′000 ppm DMSO stock solutions by pipetting. After drying, Plutella eggs were pipetted through a plastic stencil onto a gel blotting paper and the plate was closed with it. The samples were assessed for mortality and growth inhibition in comparison to untreated samples 8 days after infestation.

[2] = tested on: Spodoptera littoralis; assay: Activity against Spodoptera littoralis (Egyptian cotton leaf worm), sprayed cotton leaf discs; conditions: foliar, 72 h, application rate 200 ppm, L1 larvae, assessed 3 days after infestation vs untreated, read-out: control (at least one of mortality, anti-feedant effect, growth inhibition)
Method: Example B4: Activity Against Spodoptera littoralis (Egyptian Cotton Leaf Worm)
Cotton leaf discs were placed onto agar in 24-well microtiter plates and sprayed with aqueous test solutions prepared from 10′000 ppm DMSO stock solutions. After drying the leaf discs were infested with five L1 larvae. The samples were assessed for mortality, anti-feeding effect, and growth inhibition in comparison to untreated samples 3 days after infestation. Control of Spodoptera littoralis by a test sample is given when at least one of the categories mortality, anti-feedant effect, and growth inhibition is higher than the untreated sample.

[3] = tested on: Diabrotica balteata; assay: Activity against Diabrotica balteata (corn root worm), sprayed maize sprouts on agar; conditions: 96 h, application rate 200 ppm, L2 larvae, assessed 4 days after infestation vs untreated, read-out: effect in at least one of the two categories (mortality or growth inhibition)
Method: Example B2: Activity Against Diabrotica Balteata (Corn Root Worm)
Maize sprouts placed onto an agar layer in 24-well microtiter plates were treated with aqueous test solutions prepared from 10′000 ppm DMSO stock solutions by spraying. After drying, the plates were infested with L2 larvae (6 to 10 per well). The samples were assessed for mortality and growth inhibition in comparison to untreated samples 4 days after infestation.

[4] = tested on: Chilo suppressalis; assay: Activity against Chilo suppressalis (striped rice stemborer), artificial diet in 24-well plates; conditions: 144 h, application rate 200 ppm, L2 larvae, assessed 6 days after infestation vs untreated, read-out: control (at least one of mortality, anti-feedant effect, growth inhibition)
Method: Example B1: Activity Against Chilo suppressalis (Striped Rice Stemborer)
24-well microtiter plates with artificial diet were treated with aqueous test solutions prepared from 10′000 ppm DMSO stock solutions by pipetting. After drying, the plates were infested with L2 larvae (6-8 per well). The samples were assessed for mortality, anti-feeding effect, and growth inhibition in comparison to untreated samples 6 days after infestation. Control of Chilo suppressalis by a test sample is given when at least one of the categories mortality, anti-feedant effect, and growth inhibition is higher than the untreated sample.

CCS(=O)(=O)c1c(-c2coc3cc(C(F)(F)F)ccc3c2=O)nc2cc(C(F)(F)F)ccn12 [P.1, 3-[3-ethylsulfonyl-7-(trifluoromethyl)imidazo[1,2-a]pyridin-2-yl]-7-(trifluoromethyl)chromen-4-one]
≥ 80%: percent effect (mortality or growth inhibition) at 200 ppm [1] | percent control (mortality, anti-feedant effect or growth inhibition) at 200 ppm [2] | percent effect (mortality or growth inhibition) at 200 ppm [3] | percent control (mortality, anti-feedant effect or growth inhibition) at 200 ppm [4]
